Experiments:
CCK2 receptor [1] = target: T1, CCK2 receptor (Cavia porcellus, UniProt H0VZC5); experiment: Guinea-Pig Gastric Corpeal Muscle Assay (isolated muscle strip, pentagastrin-induced contraction); assay type: cell-based; details: CCK1 receptors blocked
T1 construct: strips of muscle were dissected and suspended in isolated tissue organ baths; from tissue; host or cells: guinea-pig gastric corpeal muscle strips
T1 sequence (H0VZC5 1-426): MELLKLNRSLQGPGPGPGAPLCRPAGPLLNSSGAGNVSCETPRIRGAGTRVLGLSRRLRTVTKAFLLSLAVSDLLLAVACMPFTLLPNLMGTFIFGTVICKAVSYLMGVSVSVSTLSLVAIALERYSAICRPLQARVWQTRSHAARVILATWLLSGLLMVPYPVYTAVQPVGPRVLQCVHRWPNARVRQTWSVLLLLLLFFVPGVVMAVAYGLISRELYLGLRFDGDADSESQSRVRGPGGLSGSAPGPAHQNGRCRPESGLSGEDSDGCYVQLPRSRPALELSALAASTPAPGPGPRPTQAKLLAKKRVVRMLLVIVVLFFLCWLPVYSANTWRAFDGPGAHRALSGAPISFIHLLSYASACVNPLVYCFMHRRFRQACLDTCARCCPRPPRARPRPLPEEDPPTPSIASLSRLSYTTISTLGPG
Description: Guinea-Pig Gastric Corpeal Muscle Assay
CCK2 receptor-mediated muscle contraction was measured in an isolated muscle-strip assay of guinea-pig gastric corpeal muscle according to the methods described by Roberts et al. (S. P. Roberts, E. A. Harper, G. F. Watt, V. P. Gerskowitch, R. A. Hull, N. P. Shankley, and J. W. Black, Br. J. Pharmacol., 1996, 118(7):1779-1789). In brief, strips of muscle were dissected and suspended in isolated tissue organ baths for isotonic muscle contraction recording. The baths, containing Krebs-Henseleit solution, were maintained at 24° C. and gassed continuously with 95% O2 and 5% CO2. CCK1 receptors known to be present in this assay were blocked using a selective concentration of a suitable CCK1 receptor antagonist (e.g. 2-NAP). The effectiveness of the test compounds was assessed by measuring their effect on contractile concentration-response curves obtained using a well-characterized surrogate for the hormone gastrin (pentagastrin).

CCK2 receptor [2] = target: T2, CCK2 receptor (Homo sapiens, UniProt P32239); experiment: Binding Assay: competition with [125I]-BH-CCK-8S in HEKZFP cell membranes; details: 60 min at 21±3° C., Cheng-Prusoff
T2 construct: Membranes were prepared from the HEKZFP cells after induction; endogenous in cells
T2 sequence (P32239 1-447): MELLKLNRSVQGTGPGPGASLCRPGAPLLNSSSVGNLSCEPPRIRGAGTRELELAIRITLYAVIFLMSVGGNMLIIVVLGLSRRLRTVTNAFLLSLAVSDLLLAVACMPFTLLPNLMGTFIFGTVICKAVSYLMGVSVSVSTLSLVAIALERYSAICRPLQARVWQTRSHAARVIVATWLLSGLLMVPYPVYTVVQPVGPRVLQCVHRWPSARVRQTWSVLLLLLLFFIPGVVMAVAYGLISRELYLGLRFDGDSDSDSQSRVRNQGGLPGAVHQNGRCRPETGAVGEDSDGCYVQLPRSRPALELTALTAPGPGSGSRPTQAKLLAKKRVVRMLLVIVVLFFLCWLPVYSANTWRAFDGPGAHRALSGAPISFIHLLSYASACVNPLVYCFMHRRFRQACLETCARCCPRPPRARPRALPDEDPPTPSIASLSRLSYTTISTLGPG
Description: Zinc Finger Proteins (ZFP) specific for the CCK2R gene were identified by Sangamo Biosciences. The ZFP domain was fused with the herpes simplex virus VP16 activation domain, and the fusion protein was subsequently cloned into the pcDNA3 mammalian expression vector (Invitrogen, San Diego, Calif.). Tet-inducible cell lines expressing the coding region from the ZFP vector were created using the T-REx-293™ cell line (Invitrogen). After 2 weeks of selection in culture medium containing […] Zeocin (Invitrogen), sixty drug-resistant stable clones were isolated and analyzed for ZFP expression as well as CCK2R induction upon addition of doxycycline to the culture medium. The cell line with the most appropriate CCK2R ZFP construct was used in all further assays and was termed the HEKZFP cell line.
HEKZFP cells were grown in DMEM supplemented with L-glutamine (2 mM), penicillin (50 units/mL) and streptomycin (50 μg/mL) and 10% FBS (v/v). HEKZFP cells were treated with […] doxycycline (Sigma-Aldrich, MO; USA) for 2 days to de-repress the tet-regulated expression of the CCK2 receptor selective zinc finger proteins and were harvested using a rubber cell scraper.
Membranes were prepared from the HEKZFP cells after induction. Frozen cell pellets (−40° C.) were thawed in 14 mL of buffer A (10 mM HEPES, 130 mM NaCl, 4.7 mM KCl, 5 mM MgCl, 1 mM EGTA and 15.4 mg/100 mL bacitracin at pH 7.2), adapted from E. A. Harper et al. (Br. J. Pharmacol. (1996) 118(7):1717-1726). The thawed pellets were homogenized using a Polytron PT-10 (7×1 s). The homogenates were centrifuged for 5 min at 1500 rpm (600×g), and the resulting pellets were discarded. The supernatants were re-centrifuged in order to collect the receptor-membrane pellets (25 min 15,000 rpm; 39,000×g), which were re-suspended in buffer A.
All assays were conducted in 96-well plate (GF/B millipore filter plates) using buffer A. For the optimal cell number determination experiments, cells in concentrations ranging from 2.5×10^5 to 12.5×10^5 cells/well were incubated with 20 pM [^125I]-BH-CCK-8S (50 μL 60 pM) solution) in a total volume of 150 μL. Total binding of [^125I]-BH-CCK-8S was determined in the presence of 15 μL of buffer A. Non-specific binding of [^125I]-BH-CCK-8S was determined in the presence of 15 μL of 10 μM YF476, a CCK-2 receptor selective antagonist that is structurally unrelated to the radioligand [^125I]-BH-CCK-8S. The assay preparation was incubated for 1 h at 21±3° C., and then the assay was terminated by rapid filtration of the preparation under reduced pressure. The loaded filters were washed three times using undiluted PBS (100 μL), and then 100 μL of scintillation fluid was added to the filter plate. Bound radioactivity was determined using a Topcount (Packard BioScience, Meriden, Conn.) with a count time of 1 min. From these experiments a cell concentration of 1 pellet in 15 mL of buffer was chosen for use in other assays. To validate the radioligand concentration and incubation time for the assay, saturation and kinetic binding studies were also conducted (see M. F. Morton, The Pharmacological Characterization of Cholecystokinin Receptors in the Human Gastrointestinal Tract. PhD Thesis, University of London, 2000). […] The assay was then terminated according to the procedure outlined above.
The pKi values were determined using the equation of Y.-C. Cheng and W. H. Prusoff (Biochem. Pharmacol., 1973, 22(23):3099-3108):
To circumvent problems associated with computer-assisted data analysis of compounds with low affinity, the data obtained in the current study were weighted according to a method described by Morton. In brief, 100% and 0% specific binding were defined independently using total binding and binding obtained in the presence of a high concentration of the reference antagonist, 2-NAP.

## O=C(c1ccc(Br)cc1NS(=O)(=O)c1cccc2nsnc12)N1CCCCC1 [Example 5, Benzo[1,2,5]thiadiazole-4-sulfonic acid [5-bromo-2-(piperidine-1-carbonyl)-phenyl]-amide]
CCK2 receptor [1]; antagonism of pentagastrin concentration-response curves, 24° C.
  pK8 value: 8.8
CCK2 receptor [1]; pentagastrin concentration-response curves
  behaviour in the muscle contraction assay: competitive antagonist
CCK2 receptor [2]
  pKi: 7.6
